Assay results taken from US20140228287A1, “1-[(3-CYANO-PYRIDIN-2-YL)METHYL]-3-METHYL-7-(2-BUTYN-1-YL)-8-[3-(R)-AMINO-PIPERIDIN-1-YL]-AXANTHINE FOR THE TREATMENT OF A METABOLIC DISORDER OF A PREDOMINANTLY CARNIVOROUS NON-HUMAN ANIMAL” (BOEHRINGER INGELHEIM VETMEDICA GMBH, priority 2010, published 2014).
Structures can show the parent of a compound that is named as a salt. Where two headings read alike, the source gives them in different places.

Experiments:
[1] = molecular target: Prolyl-Oligo Peptidase (or Prolyl Endopeptidase) (Homo sapiens, UniProt P48147); test: In vitro selectivity, human proteases: Prolyl-Oligo Peptidase; type: biochemical; conditions: up to 100 μM
Prolyl-Oligo Peptidase (or Prolyl Endopeptidase), sequence (P48147 whole entry): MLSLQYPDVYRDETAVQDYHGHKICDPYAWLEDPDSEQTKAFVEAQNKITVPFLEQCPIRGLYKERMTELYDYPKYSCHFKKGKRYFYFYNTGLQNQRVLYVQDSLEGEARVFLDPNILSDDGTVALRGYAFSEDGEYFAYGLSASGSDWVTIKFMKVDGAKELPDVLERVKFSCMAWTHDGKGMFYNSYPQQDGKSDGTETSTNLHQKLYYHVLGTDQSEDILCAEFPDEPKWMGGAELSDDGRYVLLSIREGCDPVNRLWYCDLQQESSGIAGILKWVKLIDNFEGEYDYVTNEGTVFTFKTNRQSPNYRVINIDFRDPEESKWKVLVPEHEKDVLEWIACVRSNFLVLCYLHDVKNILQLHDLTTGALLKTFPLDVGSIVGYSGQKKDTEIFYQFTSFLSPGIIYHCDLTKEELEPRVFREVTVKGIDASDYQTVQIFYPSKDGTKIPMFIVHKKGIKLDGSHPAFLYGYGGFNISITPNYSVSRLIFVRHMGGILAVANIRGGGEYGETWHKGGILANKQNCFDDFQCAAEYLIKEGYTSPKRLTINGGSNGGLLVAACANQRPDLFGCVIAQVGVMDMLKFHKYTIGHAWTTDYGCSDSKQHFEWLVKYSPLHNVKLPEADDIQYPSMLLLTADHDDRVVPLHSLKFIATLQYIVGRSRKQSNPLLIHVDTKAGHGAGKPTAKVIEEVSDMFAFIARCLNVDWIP
Description: (§1) In order to determine the in vitro selectivity of 1-[(3-cyano-pyridin-2-yl)methyl]-3-methyl-7-(2-butyn-1-yl)-8-[3-(R)-amino-piperidin-1-yl]-xanthine, the ability of this compound to inhibit a number of human proteases was investigated as described in Thomas et al. (2008), J. Pharmacol. Exp. Ther., vol. 325, p. 175-182, chapter In vitro DPP-4 Inhibition Assay, p. 176.

DPP 9 = DPP 9 (Homo sapiens, UniProt Q86TI2); test: In vitro selectivity, human proteases: DPP 9; type: biochemical
DPP 9, sequence (Q86TI2 whole entry): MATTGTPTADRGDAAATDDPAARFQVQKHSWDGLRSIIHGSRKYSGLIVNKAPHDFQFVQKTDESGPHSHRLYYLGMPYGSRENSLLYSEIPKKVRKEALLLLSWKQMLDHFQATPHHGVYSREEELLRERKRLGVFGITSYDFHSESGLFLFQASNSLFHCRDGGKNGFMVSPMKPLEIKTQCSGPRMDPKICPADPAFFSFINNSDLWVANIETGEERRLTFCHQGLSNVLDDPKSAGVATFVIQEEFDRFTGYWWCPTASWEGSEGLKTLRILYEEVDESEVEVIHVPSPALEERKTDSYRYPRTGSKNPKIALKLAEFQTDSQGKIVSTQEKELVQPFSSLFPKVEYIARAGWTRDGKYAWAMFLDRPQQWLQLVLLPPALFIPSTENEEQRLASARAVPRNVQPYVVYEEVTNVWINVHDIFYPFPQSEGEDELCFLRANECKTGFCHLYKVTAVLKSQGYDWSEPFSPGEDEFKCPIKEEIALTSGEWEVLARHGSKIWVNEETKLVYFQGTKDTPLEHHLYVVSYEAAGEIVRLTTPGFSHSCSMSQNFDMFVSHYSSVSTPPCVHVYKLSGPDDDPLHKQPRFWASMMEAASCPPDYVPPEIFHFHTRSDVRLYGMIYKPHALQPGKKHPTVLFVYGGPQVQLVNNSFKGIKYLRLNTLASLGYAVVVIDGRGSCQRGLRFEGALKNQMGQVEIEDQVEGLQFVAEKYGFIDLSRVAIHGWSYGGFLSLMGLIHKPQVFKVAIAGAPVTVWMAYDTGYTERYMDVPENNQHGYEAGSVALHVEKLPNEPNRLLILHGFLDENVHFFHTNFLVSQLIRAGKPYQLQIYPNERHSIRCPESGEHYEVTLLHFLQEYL
Description: as §1

plasma DPP IV = molecular target: T1, plasma DPP IV (Rattus norvegicus, UniProt P14740); test: Plasma DPP IV activity after oral administration, rat; type: in vivo; conditions: for inhibition at 1 mg/kg: 1 mg/kg oral; for ED50: oral, read-out: ED50 for inhibition of plasma DPP IV activity
T1 construct: from tissue
T1 sequence (P14740 37-767 limits assumed): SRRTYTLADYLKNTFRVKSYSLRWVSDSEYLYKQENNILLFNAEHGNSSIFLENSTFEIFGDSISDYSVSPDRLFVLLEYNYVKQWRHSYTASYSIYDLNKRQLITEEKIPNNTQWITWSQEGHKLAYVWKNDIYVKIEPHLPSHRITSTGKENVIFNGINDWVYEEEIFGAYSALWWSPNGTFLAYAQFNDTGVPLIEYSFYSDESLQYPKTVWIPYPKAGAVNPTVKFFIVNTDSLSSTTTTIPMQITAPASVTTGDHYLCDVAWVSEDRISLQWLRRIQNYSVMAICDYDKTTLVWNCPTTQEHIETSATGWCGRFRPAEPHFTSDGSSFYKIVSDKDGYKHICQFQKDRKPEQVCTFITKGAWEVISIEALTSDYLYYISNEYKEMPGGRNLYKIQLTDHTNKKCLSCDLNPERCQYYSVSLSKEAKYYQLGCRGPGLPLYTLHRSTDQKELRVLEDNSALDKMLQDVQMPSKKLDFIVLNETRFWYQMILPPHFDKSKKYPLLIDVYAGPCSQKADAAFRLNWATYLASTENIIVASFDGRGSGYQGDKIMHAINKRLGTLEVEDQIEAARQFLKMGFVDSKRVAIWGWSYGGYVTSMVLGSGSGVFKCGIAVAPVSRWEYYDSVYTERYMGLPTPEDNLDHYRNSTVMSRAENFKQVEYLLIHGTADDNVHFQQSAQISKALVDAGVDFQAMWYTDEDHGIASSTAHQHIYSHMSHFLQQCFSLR
Protocol: The effect of 1-[(3-cyano-pyridin-2-yl)methyl]-3-methyl-7-(2-butyn-1-yl)-8-[3-(R)-amino-piperidin-1-yl]-xanthine on plasma DPP IV activity after oral administration was investigated in the rat, the Beagle dog and the Rhesus monkey. These investigations were conducted as described in the following.
Male HanWistar rats (Crl:WI(Han)) were obtained from Charles River (Germany). Animals were fed ad libitum with a standard pelleted diet (Diet No. 3438, Provimi Kliba, Switzerland) and had free access to water. Animals were housed in groups with a 12 h/12 h light/dark cycle (lights out between 6 p.m. and 6 a.m.). The rats were used for the experiment at a body weight of about 260 g. Such freely fed male HanWistar rats (n=5 per group) were administered oral doses of vehicle or 1-[(3-cyano-pyridin-2-yl)methyl]-3-methyl-7-(2-butyn-1-yl)-8-[3-(R)-amino-piperidin-1-yl]-xanthine monohydrochloride at 0.1, 0.3, 1, and 3 mg/kg body weight. Blood samples were drawn from the retrobulbal venous plexus under isoflurane anaesthesia. Blood was collected in EDTA tubes prior to administration of vehicle or 1-[(3-cyano-pyridin-2-yl)methyl]-3-methyl-7-(2-butyn-1-yl)-8-[3-(R)-amino-piperidin-1-yl]-xanthine monohydrochloride and subsequently at 0.5, 1, 2, 3, 4, 7, and 24 hour time points post dose. Plasma was prepared following blood collection and frozen for determination of DPP-IV activity.

plasma DPP-4 = molecular target: T2, plasma DPP-4 (Felis catus, UniProt Q9N2I7); test: Inhibition of DPP-4 in cat plasma (in vitro); type: biochemical
T2 construct: from tissue; host or cells: cat plasma (3 cats), diluted 70-fold
T2 sequence (Q9N2I7 38-765 limits assumed): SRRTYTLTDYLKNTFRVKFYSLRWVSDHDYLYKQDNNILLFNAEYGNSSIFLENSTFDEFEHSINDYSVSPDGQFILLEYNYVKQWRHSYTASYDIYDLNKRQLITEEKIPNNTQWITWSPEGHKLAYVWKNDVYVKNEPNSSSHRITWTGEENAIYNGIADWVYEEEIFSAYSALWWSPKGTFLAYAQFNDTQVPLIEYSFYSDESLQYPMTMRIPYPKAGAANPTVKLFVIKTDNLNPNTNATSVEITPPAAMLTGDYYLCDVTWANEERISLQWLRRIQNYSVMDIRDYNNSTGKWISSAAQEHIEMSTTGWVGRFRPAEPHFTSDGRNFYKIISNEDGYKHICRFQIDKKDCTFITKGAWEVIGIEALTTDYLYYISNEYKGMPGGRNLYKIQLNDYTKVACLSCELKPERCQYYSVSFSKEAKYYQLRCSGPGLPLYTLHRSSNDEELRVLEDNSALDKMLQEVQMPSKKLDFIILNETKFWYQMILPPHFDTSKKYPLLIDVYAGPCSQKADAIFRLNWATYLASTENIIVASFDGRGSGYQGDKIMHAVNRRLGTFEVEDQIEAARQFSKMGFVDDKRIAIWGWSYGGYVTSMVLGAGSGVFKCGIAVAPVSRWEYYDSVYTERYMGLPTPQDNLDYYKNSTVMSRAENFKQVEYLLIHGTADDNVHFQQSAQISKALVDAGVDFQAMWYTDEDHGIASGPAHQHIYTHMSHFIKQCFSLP
Protocol: Plasma obtained from 3 different cats and one Wistar rat as control were each incubated with a range of concentrations of 1-[(3-cyano-pyridin-2-yl)methyl]-3-methyl-7-(2-butyn-1-yl)-8-[3-(R)-amino-piperidin-1-yl]-xanthine monohydrochloride. Plasma DPP-4 activity was measured in the following way (which is also described in Eckhard et al. (2007), J. Med. Chem., Vol. 50, 6450-6453, Supporting Information).
Rat and cat plasma was used for ex vivo measurement of DDP-4 activity. Blood was collected in EDTA tubes and subjected to centrifugation. The resultant supernatant was aliquoted and frozen. Plasma DPP-4 activity was assayed after dilution (140-fold for rat plasma; 70-fold for cat plasma) with assay buffer (100 mM Tris-HCl, 100 mM NaCl, pH 7.8; compound stock solutions in dimethylsulfoxide (DMSO), final DMSO concentration in the assay 1%) prior to use.
The assay itself was initiated by mixing 50 μl of diluted plasma with 50 μl of diluted substrate (Ala-Pro-AFC) and performed in black flat-bottom 96-well plates. The plates were then incubated at room temperature for 1 h and fluorescence was measured at excitation/emission wavelengths of 405/535 nm. Data analysis was performed by calculating the fluorescence in the presence of the test compound compared to the fluorescence of the vehicle control after subtracting the background fluorescence.
From a plot of concentration against activity (equivalent to fluorescence units) kinetic data could be collected, e.g. the half-maximal inhibitory concentration (IC50) of the tested compound in the different animals, which data are given in the following Table 2.

GLP-1 = test: OGTT in normal cats after 9 mg per cat: GLP-1 concentrations; type: in vivo; conditions: for GLP-1 concentration: 9 mg/cat oral, OGTT beginning 1 h after
Protocol: Cats were fasted overnight and then lightly tranquilized with tiletamine/zolazepam (2 mg per cat intravenously (Fort Dodge Animal Health, Ft. Dodge, Iowa, USA). Glucose was administered via gastric tube (2 g/kg body weight; 80% w/v) after a baseline blood sample had been obtained. […]
Glucose measurements were performed using a colorimetric glucose oxidase method (DCL, Oxford, Conn., USA). Plasma insulin was measured as described in Hoenig et al. (1989), J. Endocrinol., vol. 121, p. 249-251. The concentrations of active GLP-1 were measured with an ELISA kit from Linco (St. Charles, Mo., USA). All samples were tested in duplicate. […] The interassay coefficient of variation (CV) was 7.6%, and the intra-assay CV was 12.1%.
An OGTT like in Example 11 was performed in […] beginning 1 h after oral administration of 9 mg 1-[(3-cyano-pyridin-2-yl)methyl]-3-methyl-7-(2-butyn-1-yl)-8-[3-(R)-amino-piperidin-1-yl]-xanthine monohydrochloride or placebo (2 groups with 6 animals each; 3 male and 3 females per group).

How did the “inhibitory effect on Prolyl-Oligo Peptidase” value [1] turn out when CC#CCn1c(N2CCC[C@@H](N)C2)nc2c1c(=O)n(Cc1ncccc1C#N)c(=O)n2C [1-[(3-cyano-pyridin-2-yl)methyl]-3-methyl-7-(2-butyn-1-yl)-8-[3-(R)-amino-piperidin-1-yl]-xanthine monohydrochloride] was run?
The value was “did not exert any inhibitory effect”.

What about the IC50 (DPP 9) of the same compound?
The IC50 was over 10000 nM.

And the inhibition at 1 mg/kg (plasma DPP IV; 7 hours post dose)?
The inhibition at 1 mg/kg was 86%.

What about the inhibition at 1 mg/kg (plasma DPP IV; 24 hours post dose) of the same compound?
Its inhibition at 1 mg/kg is 64%.

What about the ED50 (plasma DPP IV; 7 h post dose) of the same compound?
Its ED50 is 0.4 mg/kg.

And the ED50 (plasma DPP IV; 24 h post dose)?
The ED50 was 0.6 mg/kg.

What about the IC50 (plasma DPP-4; cat 1 plasma) of the same compound?
The IC50 was 1.94 nM.

And the hillslope (plasma DPP-4; cat 1 plasma)?
Its hillslope is −0.7518.

What about the IC50 (plasma DPP-4; cat 2 plasma) of the same compound?
Its IC50 is 1.45 nM.

What about the hillslope (plasma DPP-4; cat 2 plasma) of the same compound?
Its hillslope is −0.7102.

What about the IC50 (plasma DPP-4; cat 3 plasma) of the same compound?
Its IC50 is 1.84 nM.

And the hillslope (plasma DPP-4; cat 3 plasma)?
Its hillslope is −0.7615.

What about the “GLP-1 increase compared to Placebo” value (GLP-1; 9 mg per cat oral, OGTT in normal cats) of the same compound?
Its value is “significantly higher compared to Placebo”.

What about the GLP-1 concentration (GLP-1; 60 min after drug administration) of the same compound?
Its GLP-1 concentration is 3.70 pmol/L.

And the GLP-1 concentration (GLP-1; 65 min after drug administration)?
The GLP-1 concentration was 3.92 pmol/L.

And the GLP-1 concentration (GLP-1; 70 min after drug administration)?
Its GLP-1 concentration is 4.54 pmol/L.

What about the GLP-1 concentration (GLP-1; 75 min after drug administration) of the same compound?
The GLP-1 concentration was 7.28 pmol/L.

And the GLP-1 concentration (GLP-1; 90 min after drug administration)?
Its GLP-1 concentration is 16.31 pmol/L.

What about the GLP-1 concentration (GLP-1; 120 min after drug administration) of the same compound?
Its GLP-1 concentration is 26.93 pmol/L.

What about the GLP-1 concentration (GLP-1; 180 min after drug administration) of the same compound?
The GLP-1 concentration was 23.25 pmol/L.

What about the GLP-1 concentration (GLP-1; 240 min after drug administration) of the same compound?
Its GLP-1 concentration is 14.45 pmol/L.

And the GLP-1 concentration (GLP-1; 300 min after drug administration)?
The GLP-1 concentration was 9.60 pmol/L.

And the GLP-1 concentration (GLP-1; 360 min after drug administration)?
The GLP-1 concentration was 6.04 pmol/L.
